# In patent US20260374782A1, “NEW COMPOUNDS, PROCESSES FOR PREPARING THE SAME AND THEIR USE AS DRUGS” (B&A ONCOMEDICAL, priority 2022, published 2026):
# Where “and” joins values, the source holds several entries; their conditions need not be identical. Equal entries are not always repeated.
# Legend:
# [1] = system: CA3 pyramidal neurons in hippocampus; assay: Giant depolarizing potentials (GDPs) current density in CA3 pyramidal neurons, hippocampal slices, whole-cell recordings; format: cell-based, mice; details: for GDPs current density (normalized): individual cells; for activity at 0.1 µM / activity at 0.3 µM / activity at 1 µM / activity at 3 µM / activity at 10 µM: Mus musculus, Pyramidal neuron, mean, read-out: GDPs current density, Mean (normalized); for block of GDPs in CA3 pyramidal neurons: in words
# Source text: FIG. 2. Brain slice (hippocampus) with electrical stimulation and recording
# FIG. 3. Normalized GDP current density in CA3 pyramidal neurons in presence of NKCC1 inhibitor
# Panel A. Normalized GDP current density in CA3 pyramidal neurons according to the concentration of compound 57 in μM Panel B. Normalized GDP current density in CA3 pyramidal neurons according to the concentration of compound 51 in μM Panel C. Normalized GDP current density in CA3 pyramidal neurons according to the concentration of compound 57 and compound 51 in μM.
# 51 and 57 were tested to evaluate their basic neuronal intrinsic properties and excitability. Current-clamp whole-cell recordings were performed in CA3 pyramidal neurons in hippocampal slices from P14-15 mice with a bipolar stimulation electrode (FIG. 2).
# CA1 pyramidal neurons = assay: Seizure-like events (SLE) triggered by tetanus stimulation of stratum radiatum in hippocampus, cell-attached recording; format: cell-based; details: for anticonvulsive activity / suppression of GABAAR-mediated depolarization during SLEs: 2 μM, in words
# Method: (§1) FIG. 4. Cell-attached recording Tetanus in CA1 pyramidal neurons in presence of compound 51 (20 stimulus, 100 Hz, 4 consecutive traces superimposed), expressed in picoampere per second. The upper bars are representing the 100 Hz stimulation of stratum radiatum in control conditions, and the lower bars are representing 30 minutes after application of 2 μM of compound 51.
# as §1, with “5.” for “4.”, “57” for “51”, “57.” for “51.”
# FIG. 6. Post-tetanus frequency (normalized) in presence or not of 2 μM of compound 51 (withing 20 seconds window s after tetanus stimulation) (paired two-tailed t test: p=1*e^−4, n=5 cells). The error bars represent standard error of the mean.
# FIG. 7. Post-tetanus frequency (normalized) in presence or not of 2 μM of compound 57 (withing 20 seconds window s after tetanus stimulation) (paired two-tailed t test: p=1*e^−4, n=5 cells). The error bars represent standard error of the mean.
# Use of a NKCC1 inhibitor to block the activation of NKCC1 can reduce the [Cl^−]i, and thereby attenuate the excitatory GABAAR responses during epilepsy. Therefore, anticonvulsant effects of 51 on modulating the GABA polarity in acute seizure models was investigated. The seizure-like events in CA1 pyramidal neurons were triggered by tetanic stimulation of stratum radiatum in hippocampus by 51 (FIG. 4) and 57 (FIG. 5).
Compound,GDPs current density (normalized) ([1]; 0.1 μM),GDPs current density (normalized) ([1]; 0.3 μM),GDPs current density (normalized) ([1]; 1 μM),GDPs current density (normalized) ([1]; 3 μM),GDPs current density (normalized) ([1]; 10 μM),activity at 0.1 µM ([1]; 0.1 μM),activity at 0.3 µM ([1]; 0.3 μM),activity at 1 µM ([1]; 1 μM),activity at 3 µM ([1]; 3 μM),activity at 10 µM ([1]; 10 μM),block of GDPs in CA3 pyramidal neurons [1],anticonvulsive activity (CA1 pyramidal neurons),suppression of GABAAR-mediated depolarization during SLEs (CA1 pyramidal neurons),"activity at 2 µM (CA1 pyramidal neurons; Pyramidal neuron, 0.5 h, fraction of control, n=5, two-tailed paired t-test, p=5*e^−4, read-out: post-tetanus spike frequency, of control)"
"CCCCNc1cc(C(=O)O)cc(S(=N)(=O)NC)c1Oc1ccccc1 (stereo not drawn) [Compound 51, 3-(butylamino)-5-(methylaminosulfonimidoyl)-4-phenoxy-benzoic acid]",0.6538 and 1.003 and 0.8458 and 0.6095 and 0.2984,0.2304 and 0.3999 and 0.22 and 0.9979 and 1.222 and 0.1863,0.2253 and 0.1713 and 0.1814 and 0.3747 and 0.3549 and 0.1282 and 0.4268,0.1082 and 0.484 and 0.1443 and 0.1442 and 0.08715 and 0 and 0.175,0.1092 and 0 (2×) and 0.04 (2×) and 0.05,68.2%,54.3%,26.6%,16.3%,3.99%,able to block GDPs,potent anticonvulsive activity,potently suppressed,27 ± 7%
"CCCCNc1cc(C(=O)O)cc(S(=N)(=O)Nc2ccccc2)c1Oc1ccccc1 (stereo not drawn) [Compound 57, 3-(anilinosulfonimidoyl)-5-(butylamino)-4-phenoxy-benzoic acid]",1.067 and 0.6415 and 0.36 and 0.7716 and 1.279 and 0.8652 and 0.5079 and 0.901,0.3666 and 0.448 and 0.5922 and 0.1844 and 0.9957 and 0.5556 and 0.7164,0.5108 and 0.3317 and 0.1389 and 0.1288 and 0.09779 and 0.191 and 0.2683 and 0.352,0.06999 and 0.4997 and 0.2222 and 0.0431 and 0.2732 and 0.2642 and 0,0.06399 and 0.2068 and 0 (3×),79.9%,55.1%,25.2%,19.6%,5.42%,able to block GDPs,potent anticonvulsive activity,potently suppressed,
